Test results taken from US6410253B1, “Cholesterol oxidase” (priority 1990, dated 2002).

Key:
Assay type in all cases: biochemical, Brevibacterium sterolicum ATCC 21387
cholesterol oxidase I [1] = molecular target: T1, cholesterol oxidase I (Brevibacterium sterolicum, UniProt P22637); test: Substrate specificity of cholesterol oxidase I (relative activity on sterol substrates); details: cholesterol = 100
Experimental: (§1) The amount of enzyme which catalyzes the reaction of decomposing 1 μmole of cholesterol at 37° C. for one minute in the presence of oxygen is defined as one unit. The titer is determined as follows. While shaking, the enzyme acts on cholesterol and 4-aminoantipyrine and phenol are reacted with the formed hydrogen peroxide in the presence of peroxidase to form quinonimine pigment. Absorption of the thus formed quinonimine pigment in the visible region is measured to determine the amount of hydrogen peroxide generated. Thus, the titer of the enzyme is determined. Hereafter specific activity is defined as activity per 1 mg of protein (unit/mg).
(§2) The enzyme activity is determined by reacting hydrogen peroxide generated by the enzyme with 4-aminoantipyrine and phenol in the presence of peroxidase and quantitatively determining the formed quinonimine pigment. The reaction is shown by the following equations (1) and (2). [drawing 3]
(§3) The mixture is agitated. After maintaining at 37° C. for 3 minutes, 0.2 ml of an enzyme solution is added to the mixture. While shaking, the reaction is carried out at 37° C. for 5 to 10 minutes. Then, absorbance is measured at 500 nm (OD 500 nm)

cholesterol oxidase II [2] = test: Substrate specificity of cholesterol oxidase II (relative activity on sterol substrates); details: for Relative Activity (%) of cholesterol oxidase II on substrate: cholesterol = 100; for Substrate specificity (acts / does not act on): cholesterol oxidase II
Experimental: as §1, §2, §3

cholesterol oxidase II [3] = test: Influence of inhibitor on cholesterol oxidase II activity; details: for Inhibition of the enzyme (in words): cholesterol oxidase II; for Relative Activity (%) of cholesterol oxidase II in the presence of inhibitor: inhibitor 1 mM, activity in the absence of inhibitor = 100
Experimental: (§4) Relative activity is shown in Table 2, in the presence of an inhibitor at a concentration of 1 mM, when in the absence of the inhibitor, the activities of cholesterol oxidases I and II are regarded as 100.
as §1, with “(unit/mg). Furthermore, an amount of enzyme protein is determined by absorbance at 280 nm (1 mg/ml when absorbance is 1).” for “(unit/mg).”
In a test tube, there are charged 1.0 ml of 3 mM cholesterol solution (which is prepared by adding 6 ml of 50 mM cholesterol ethanol solution to 94 ml of 1.05% Triton X-100 solution with stirring, heating the mixture for 10 minutes on a water bath, cooling the mixture in water, adding distilled water to the mixture until the total volume is 100 ml; and is not allowed to be used 30 minutes or longer after preparation) , 0.3 ml of 50 mM sodium bilate solution, 0.3 ml of 0.5 mM potassium-sodium phosphate buffer (pH 6.6), 0.5 ml of 42 mM phenol, 0.5 ml of 2.4 mM 4-aminoantipyrine and 0.2 ml of 115 units/ml horseradish-derived peroxidase. The mixture is agitated. After maintaining at 37° C. for 3 minutes, 0.2 ml of an enzyme solution is added to the mixture. While shaking, the reaction is carried out at 37° C. for 5 to 10 minutes. Then, absorbance is measured at 500 nm (OD 500 nm)

cholesterol oxidase I [4] = molecular target: T1, cholesterol oxidase I; test: Influence of inhibitor on cholesterol oxidase I activity; details: inhibitor 1 mM; activity in the absence of inhibitor = 100
Experimental: as §4
as §1, with “(unit/mg). Furthermore, an amount of enzyme protein is determined by absorbance at 280 nm (1 mg/ml when absorbance is 1). […]” for “(unit/mg).”

T1 sequence (P22637 46-552): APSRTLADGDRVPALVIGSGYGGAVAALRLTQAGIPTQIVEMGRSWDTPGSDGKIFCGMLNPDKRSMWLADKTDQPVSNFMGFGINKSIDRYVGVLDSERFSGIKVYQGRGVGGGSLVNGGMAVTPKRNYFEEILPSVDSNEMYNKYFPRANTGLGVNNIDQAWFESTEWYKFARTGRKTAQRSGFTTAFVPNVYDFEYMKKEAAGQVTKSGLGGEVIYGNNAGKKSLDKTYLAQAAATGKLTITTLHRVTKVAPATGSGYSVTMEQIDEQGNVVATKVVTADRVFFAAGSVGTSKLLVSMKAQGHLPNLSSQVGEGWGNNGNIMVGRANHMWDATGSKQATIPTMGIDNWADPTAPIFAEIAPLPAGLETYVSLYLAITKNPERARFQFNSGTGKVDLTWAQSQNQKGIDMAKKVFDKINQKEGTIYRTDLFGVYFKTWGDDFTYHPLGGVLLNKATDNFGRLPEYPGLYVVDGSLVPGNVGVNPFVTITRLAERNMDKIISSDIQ

SMILES | Relative Activity (%) of cholesterol oxidase I on substrate (cholesterol oxidase I [1]) [%] | Relative Activity (%) of cholesterol oxidase II on substrate (cholesterol oxidase II [2]) [%] | Inhibition of the enzyme (in words) (cholesterol oxidase II [3]) | Relative Activity (%) of cholesterol oxidase II in the presence of inhibitor (cholesterol oxidase II [3]) [%] | Relative Activity (%) of cholesterol oxidase I in the presence of inhibitor (cholesterol oxidase I [4]) [%] | Substrate specificity (acts / does not act on) (cholesterol oxidase II [2])
CC(=O)[C@H]1CC[C@H]2[C@@H]3CC=C4C[C@@H](O)CC[C@]4(C)[C@H]3CC[C@]12C [Pregnenolone] | 22.4 | 32.9 |  |  |  | 
C[C@]12CC[C@@H]3c4ccc(O)cc4CC[C@H]3[C@@H]1CC[C@@H]2O [Estradiol] | 0 |  |  |  |  | 
Oc1cccc2cccnc12 [o-Hydroxyquinoline] |  |  | inhibited | 91.3 |  | 
CC[C@H](CC[C@@H](C)[C@H]1CC[C@H]2[C@@H]3CC=C4C[C@@H](O)CC[C@]4(C)[C@H]3CC[C@]12C)C(C)C [β-Sitosterol] | 19.7 | 82.0 |  |  |  | 
O=[N+]([O-])[O-].[Ag+] [AgNO3, silver nitrate] |  |  | inhibited | 1.0 | 0 | 
CC[C@H](/C=C/[C@@H](C)[C@H]1CC[C@H]2[C@@H]3CC=C4C[C@@H](O)CC[C@]4(C)[C@H]3CC[C@]12C)C(C)C [Stigmasterol] | 10.0 | 64.4 |  |  |  | 
O=S(=O)(O)c1cc[c]([Hg][Cl])cc1 [p-Chloromercury benzenesulfonate] |  |  | inhibited | 87.0 | 80.0 | 
C=C1CC[C@H](O)C/C1=C/C=C1\CCC[C@]2(C)[C@@H]([C@H](C)CCCC(C)C)CC[C@@H]12 [Vitamin D3] | 0 | 0 |  |  |  | does not act on
C[C@]12CC[C@@H](O)C[C@@H]1CC[C@@H]1[C@@H]2CC[C@]2(C)C(=O)CC[C@@H]12 [Androsterone] | 0 | 0 |  |  |  | does not act on
CC(C)=CCC[C@@H](C)[C@H]1CC[C@@]2(C)C3=C(CC[C@]12C)[C@@]1(C)CC[C@H](O)C(C)(C)[C@@H]1CC3 [Lanosterol] | 0 | 0 |  |  |  | does not act on
C[C@]12CC[C@H](O)CC1=CC[C@@H]1[C@@H]2CC[C@]2(C)C(=O)CC[C@@H]12 [Dehydroisoandrosterone] | 41.4 | 13.0 |  |  |  | 
CCCCC/C=C\C/C=C\CCCCCCCC(=O)O[C@H]1CC[C@@]2(C)C(=CC[C@H]3[C@@H]4CC[C@H]([C@H](C)CCCC(C)C)[C@@]4(C)CC[C@@H]32)C1 [Cholesterol linoleate] | 0 | 0 |  |  |  | does not act on
CC(C)CCC[C@@H](C)[C@H]1CC[C@H]2[C@@H]3CC=C4C[C@@H](O)CC[C@]4(C)[C@H]3CC[C@]12C [Cholesterol, 5-cholesten-3-β-ol] | 100 | 100 |  |  |  | 
